Here are results for 14 compounds from ChEMBL document CHEMBL1201862, “PubChem BioAssay data set” (2004).

The structures appear in SMILES notation. Activity calls are given as the source filed them. For most assays here, no stated cut-off is given here; in the data, actives have a measured EC50 and inactives only a lower limit.

The target of test [1] is Cytochrome P450 3A4 (Homo sapiens, UniProt P08684). The following applies: Potency.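 Further: confirmatory qHTS run detecting inhibitors and substrates of CYP3A4.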
Chain of Cytochrome P450 3A4 (P08684 whole entry): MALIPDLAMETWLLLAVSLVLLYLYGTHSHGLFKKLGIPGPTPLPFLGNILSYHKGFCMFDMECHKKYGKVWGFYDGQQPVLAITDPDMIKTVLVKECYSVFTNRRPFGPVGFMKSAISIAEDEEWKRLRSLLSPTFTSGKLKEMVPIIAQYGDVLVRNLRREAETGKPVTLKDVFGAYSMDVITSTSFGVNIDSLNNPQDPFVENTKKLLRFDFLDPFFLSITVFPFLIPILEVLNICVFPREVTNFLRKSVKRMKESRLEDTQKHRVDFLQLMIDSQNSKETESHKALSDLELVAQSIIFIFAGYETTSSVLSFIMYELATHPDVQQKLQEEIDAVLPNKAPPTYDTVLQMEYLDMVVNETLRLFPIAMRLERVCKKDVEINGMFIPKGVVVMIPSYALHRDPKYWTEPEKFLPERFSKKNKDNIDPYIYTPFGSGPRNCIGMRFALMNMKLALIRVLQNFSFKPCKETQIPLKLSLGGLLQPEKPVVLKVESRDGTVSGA
Test [2] in a line: cells. It is filed as functional, cell-based.
Test [3] in a line: cells. The test is classed as functional, cell-based. The source holds these as a separate data set.
Test [4] can be described thus: NIH-3T3 fibroblast cytotoxicity, dose response, cytotoxicity control, cell-based, fluorescence, Alamar Blue, secondary assay (AID 2327).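 Further: NIH-3T3 mouse fibroblasts cultured with fluconazole at 8 µg/mL.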 The test is classed as functional. (The colour change of resazurin is a common sign of viable cells or microbes.)
Test [5] can be described thus: C. albicans growth with fluconazole, confirmation, fluorescence, retest (AID 2467). The test is classed as functional, cell-based.
Test [6] is described as follows: microbe, parasite or virus in culture. The test is classed as functional. The following applies: Mycobacterium tuberculosis.
Test [7] is described as follows: cytotoxicity in HEK-293T cells, dose response, cytotoxicity control for TCR NF-kB inhibitor project, luminescence, T-cell screen hits (AID 489026).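 Further: cells exposed to compound about 14 hours before the viability readout.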 It is filed as functional, cell-based.
For test [8], the target named is T1, Heat shock factor protein 1 (Mus musculus, UniProt P38532).
T1 sequence (P38532 whole entry): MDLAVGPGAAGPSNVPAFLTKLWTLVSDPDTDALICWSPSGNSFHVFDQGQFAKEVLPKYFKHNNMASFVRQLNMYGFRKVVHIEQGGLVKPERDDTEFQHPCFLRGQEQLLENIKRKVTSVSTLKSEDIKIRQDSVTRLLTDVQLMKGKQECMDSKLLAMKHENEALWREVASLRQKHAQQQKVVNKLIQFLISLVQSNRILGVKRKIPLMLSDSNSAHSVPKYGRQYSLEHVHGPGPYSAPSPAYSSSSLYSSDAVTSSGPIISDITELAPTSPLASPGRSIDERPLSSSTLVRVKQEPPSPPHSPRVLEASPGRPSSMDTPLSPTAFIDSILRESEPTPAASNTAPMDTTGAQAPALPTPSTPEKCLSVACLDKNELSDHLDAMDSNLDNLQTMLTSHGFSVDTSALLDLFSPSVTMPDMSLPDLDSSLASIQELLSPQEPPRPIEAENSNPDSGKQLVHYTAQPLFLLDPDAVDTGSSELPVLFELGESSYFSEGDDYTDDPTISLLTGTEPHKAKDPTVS
In words: HSF1 potentiators in luciferase reporter cells, confirmation, cell-based, NIH3T3, luminescence, dose retest (AID 435004).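 Further: stress induced by proteasome inhibitor MG132 added 30 min after compound; luciferase reporter driven by HSF1 response element in NIH3T3 cells; actives raise luminescence as potentiators of the MG132 stress response.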 It is filed as functional. On the technique in general: In a reporter assay the amount or activity of a reporter protein is the signal.

Test [9] has as its target T2, Replicative DNA helicase DnaB (Mycobacterium tuberculosis, UniProt P9WMR3).
T2 sequence (P9WMR3 whole entry): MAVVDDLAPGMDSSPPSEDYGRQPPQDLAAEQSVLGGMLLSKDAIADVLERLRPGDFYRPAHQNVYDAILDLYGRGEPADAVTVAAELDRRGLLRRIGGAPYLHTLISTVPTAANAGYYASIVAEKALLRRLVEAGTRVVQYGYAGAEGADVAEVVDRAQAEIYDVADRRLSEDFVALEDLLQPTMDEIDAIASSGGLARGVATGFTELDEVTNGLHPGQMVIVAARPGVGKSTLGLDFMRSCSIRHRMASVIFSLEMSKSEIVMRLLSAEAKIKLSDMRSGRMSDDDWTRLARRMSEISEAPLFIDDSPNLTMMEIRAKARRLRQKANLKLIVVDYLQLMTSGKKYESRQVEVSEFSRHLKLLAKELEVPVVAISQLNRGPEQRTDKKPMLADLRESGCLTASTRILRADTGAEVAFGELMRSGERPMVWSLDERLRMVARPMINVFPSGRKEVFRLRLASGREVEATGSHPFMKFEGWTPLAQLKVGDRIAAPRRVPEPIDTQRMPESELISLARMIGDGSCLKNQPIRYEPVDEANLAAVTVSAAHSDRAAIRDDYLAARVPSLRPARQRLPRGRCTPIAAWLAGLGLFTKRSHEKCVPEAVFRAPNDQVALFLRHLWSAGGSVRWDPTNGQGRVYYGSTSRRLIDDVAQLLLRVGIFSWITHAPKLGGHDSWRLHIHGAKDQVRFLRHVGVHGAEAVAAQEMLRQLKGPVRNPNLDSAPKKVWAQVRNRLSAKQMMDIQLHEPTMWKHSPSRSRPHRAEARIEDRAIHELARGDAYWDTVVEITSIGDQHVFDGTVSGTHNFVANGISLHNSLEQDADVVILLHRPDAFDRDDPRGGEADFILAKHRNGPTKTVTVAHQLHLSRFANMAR
In words: DnaB intein splicing inhibitors, dose response, biochemical, cell-free fluorescence (AID 449749). The test is classed as functional.

The target in test [10] is T3, Protein RecA (Mycobacterium tuberculosis, UniProt P9WHJ3).
T3 sequence (P9WHJ3 whole entry): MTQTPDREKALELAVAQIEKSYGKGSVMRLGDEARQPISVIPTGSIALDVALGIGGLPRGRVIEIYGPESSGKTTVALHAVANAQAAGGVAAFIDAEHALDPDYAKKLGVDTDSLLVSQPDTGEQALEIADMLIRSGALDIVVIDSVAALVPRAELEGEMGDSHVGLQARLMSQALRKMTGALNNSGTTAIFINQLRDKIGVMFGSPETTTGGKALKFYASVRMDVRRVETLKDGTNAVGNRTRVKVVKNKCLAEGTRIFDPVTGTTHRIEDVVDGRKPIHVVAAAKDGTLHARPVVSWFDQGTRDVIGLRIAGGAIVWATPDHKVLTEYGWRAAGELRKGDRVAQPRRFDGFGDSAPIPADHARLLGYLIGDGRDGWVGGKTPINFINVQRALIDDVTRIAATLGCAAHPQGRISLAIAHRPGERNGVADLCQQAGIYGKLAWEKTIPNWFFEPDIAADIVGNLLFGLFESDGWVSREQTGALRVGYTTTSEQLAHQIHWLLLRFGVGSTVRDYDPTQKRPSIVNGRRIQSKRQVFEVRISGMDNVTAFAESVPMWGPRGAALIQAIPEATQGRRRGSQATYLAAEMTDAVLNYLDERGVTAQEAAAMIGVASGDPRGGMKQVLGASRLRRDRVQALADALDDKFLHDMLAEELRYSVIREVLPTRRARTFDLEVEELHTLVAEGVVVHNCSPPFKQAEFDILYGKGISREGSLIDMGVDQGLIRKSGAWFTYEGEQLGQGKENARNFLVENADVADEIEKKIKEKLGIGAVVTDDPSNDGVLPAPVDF
Kind of test: Fluorescence Cell-Free Homogeneous Dose Retest to Identify Inhibitors of RecA-Intein Splicing Activity. [Related pubchem assays (depositor defined):AID2097, AID2223, AID489010, AID492950]. It is filed as functional.

Test [11] in a line: inhibitors of PGC1a acetylation in cells, dose response, cell-based, cherry-picked samples (AID 720514).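 Further: potency may reflect raised or lowered acetylation signal.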 The test is classed as functional.
Test [12] in a line: inhibitors of intracellular T. cruzi replication, confirmation, NIH3T3 host cells, beta-gal luminescence (AID 2044).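 Further: intracellular parasites grown in NIH/3T3 mouse fibroblasts as host cells; luminescent beta-galactosidase reporter signal from transgenic T. cruzi replicating inside host cells; inhibitors lower the luminescence signal.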 It is filed as functional, cell-based.
Test [13] is described as follows: cytotoxicity toward NIH3T3 fibroblasts, dose response, counter-screen, cell-based, ATP luminescence, mouse fibroblasts (AID 2010).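 Further: cells exposed to compound for about 90 hours before reading.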 It is filed as functional.
The target in test [14] is T4, DNA repair protein RAD52 homolog (Homo sapiens, UniProt P43351).
T4 sequence (P43351 whole entry): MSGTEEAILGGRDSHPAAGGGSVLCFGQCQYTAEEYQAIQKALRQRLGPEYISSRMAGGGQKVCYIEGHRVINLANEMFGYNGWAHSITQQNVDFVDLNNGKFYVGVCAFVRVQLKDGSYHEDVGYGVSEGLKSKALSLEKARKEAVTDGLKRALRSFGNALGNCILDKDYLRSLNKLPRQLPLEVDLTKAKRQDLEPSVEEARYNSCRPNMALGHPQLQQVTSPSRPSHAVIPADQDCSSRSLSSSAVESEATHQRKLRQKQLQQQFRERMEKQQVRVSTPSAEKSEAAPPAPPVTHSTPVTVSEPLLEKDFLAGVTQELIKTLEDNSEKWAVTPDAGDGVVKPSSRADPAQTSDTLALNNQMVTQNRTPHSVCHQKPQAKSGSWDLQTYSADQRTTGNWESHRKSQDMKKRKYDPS
The test is classed as functional, biochemical.

Test [15] has as its target T5, Histone-lysine N-methyltransferase NSD2 (Homo sapiens, UniProt O96028).
T5 sequence (O96028 whole entry): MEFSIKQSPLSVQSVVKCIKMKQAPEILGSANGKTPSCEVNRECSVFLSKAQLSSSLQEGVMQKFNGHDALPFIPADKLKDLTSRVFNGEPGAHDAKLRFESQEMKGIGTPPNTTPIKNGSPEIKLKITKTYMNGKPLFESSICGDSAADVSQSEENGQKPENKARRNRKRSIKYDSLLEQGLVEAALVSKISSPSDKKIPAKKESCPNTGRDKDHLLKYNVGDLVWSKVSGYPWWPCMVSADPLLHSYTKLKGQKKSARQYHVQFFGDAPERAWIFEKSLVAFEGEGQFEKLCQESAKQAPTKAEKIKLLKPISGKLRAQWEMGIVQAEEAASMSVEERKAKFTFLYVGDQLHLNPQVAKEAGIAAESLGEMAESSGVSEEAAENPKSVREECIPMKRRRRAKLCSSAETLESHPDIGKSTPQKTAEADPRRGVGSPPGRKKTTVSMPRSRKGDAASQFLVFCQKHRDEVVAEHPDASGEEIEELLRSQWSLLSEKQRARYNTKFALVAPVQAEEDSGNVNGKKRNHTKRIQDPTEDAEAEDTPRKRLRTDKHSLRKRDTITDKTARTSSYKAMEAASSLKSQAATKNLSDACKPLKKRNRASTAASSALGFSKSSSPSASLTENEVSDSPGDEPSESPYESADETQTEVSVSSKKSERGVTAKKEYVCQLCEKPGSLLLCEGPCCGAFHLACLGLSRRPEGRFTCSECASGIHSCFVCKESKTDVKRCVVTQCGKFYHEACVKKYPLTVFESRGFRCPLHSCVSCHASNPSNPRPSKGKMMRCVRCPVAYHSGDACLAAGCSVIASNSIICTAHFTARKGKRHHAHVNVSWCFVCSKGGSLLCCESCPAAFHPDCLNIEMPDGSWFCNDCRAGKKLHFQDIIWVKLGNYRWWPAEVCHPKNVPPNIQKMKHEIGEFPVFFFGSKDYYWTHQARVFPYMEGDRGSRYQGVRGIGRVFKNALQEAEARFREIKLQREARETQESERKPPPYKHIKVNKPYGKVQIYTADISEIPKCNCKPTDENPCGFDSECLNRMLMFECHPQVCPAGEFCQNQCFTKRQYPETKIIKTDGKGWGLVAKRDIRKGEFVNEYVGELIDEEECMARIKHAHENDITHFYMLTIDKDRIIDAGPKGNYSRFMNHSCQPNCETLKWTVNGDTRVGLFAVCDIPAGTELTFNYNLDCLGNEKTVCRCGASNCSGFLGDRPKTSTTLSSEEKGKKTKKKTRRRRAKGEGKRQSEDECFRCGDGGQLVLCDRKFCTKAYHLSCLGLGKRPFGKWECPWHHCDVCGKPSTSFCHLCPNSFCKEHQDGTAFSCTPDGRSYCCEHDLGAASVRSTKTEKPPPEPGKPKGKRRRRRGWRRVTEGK
The test is classed as biochemical.

Usually AC50 stands for the concentration at which the activity in the assay is half-maximal. Regarding `CC(=O)Oc1ccc2c(c1C(C)C)CCC1C(C)(C)CCC[C@@]21C` (stereo not given in full), the AC50 in test [1] was 39.8 µM (inconclusive).

Take `FC(F)(F)c1ccc(CN2C[C@@H]3C(c4ccc(Cl)nc4)C4(c5ccccc5)CC3(C4)[C@H]2c2ccccc2)cc1` (stereo not given in full): the half-maximal activity concentration (AC50) in test [1] is 20 µM (inconclusive).

The EC50 is the midpoint of the concentration-response curve. For `CC1CCN(C(=O)CS(=O)(=O)Cc2ccccc2)CC1`, the 50% effective concentration (EC50) in [2] is > 350 µM (not active); in test [3], 273 µM (active).

Take `CC(=O)N1CCC(=NNC(=O)c2cc3ccccc3cc2O)CC1`: the EC50 in test [4] is > 150 µM (inactive); in [2], > 350 µM (not active); in [5], > 38 µM (not active); in [3], 22.2 µM (active).

As for `CCOC(=O)c1sc(=S)n(-c2ccccc2)c1C`, the concentration giving a half-maximal response (EC50) in test [2] and in [3] was > 350 µM (not active) in each case.

Regarding `COC(=O)[C@@H]1C[C@H]2CC[C@H](O)C[C@H]2N1Cc1ccc(C)s1`, in [1], the AC50 was 15.8 µM (inconclusive).

For the compound `Cc1cc(C)cc(N(CC(=O)Nc2ccccc2C(=O)N2CCOCC2)S(C)(=O)=O)c1`, the EC50 in test [2] and in test [3] was > 350 µM (not active) each time.

For `CCN(CCCNC(=O)CCNC(=O)Cn1ccc2ccccc2c1=O)c1ccccc1`, the EC50 in test [2] and in [3] was > 350 µM (not active) throughout.

A word on the IC50: it is the point on the concentration scale where inhibition reaches its midpoint. Turning to `CCCSc1nnc(Sc2nnnn2-c2ccccc2)s1`, the CC50 in test [6] is 6.83 µM (active). The IC50 in test [7] was > 80 µM (inactive). Also, the EC50 is 22 µM (active) in [8] and 14.5 µM (active) in test [10]. Also, the half-maximal activity concentration (AC50) is 12.5 µM (active) in test [9] and 0.771 µM (active) in [11].

For `O=C(c1ccc(Cl)cc1)C(Cn1cncn1)C(Sc1ccccc1)c1ccccc1` (stereo not given), the AC50 in test [11] was 13 µM (active).

In the case of `CCN(CC)CCNc1ncnc2c1sc1nc(N3CCCC3)c3c(c12)CC(C)(C)OC3`, the EC50 in test [12] was 2.86 µM (active); in [13], 10.2 µM (active). Further, the concentration at half-maximal activity (AC50) was 4.72 µM (active) in test [14] and 19.7 µM (active) in test [15].

Consider `Cc1nc(NC2CCCCC2)c2nc(-c3ccccc3)n(CCCN3CCOCC3)c2n1`, for which the half-maximal activity concentration (AC50) in test [1] was 5.01 µM (inconclusive).

In the case of `CCCCCCn1nc(C(=O)Nc2nc3c(s2)CCCC3)c2ccccc2c1=O`, the EC50 is > 350 µM (not active) in [2] and 115 µM (active) in [3].

As for `C[C@@H]1CN([C@H](C)CO)C(=O)c2cc(C3=CCCCC3)cnc2O[C@@H]1CN(C)Cc1ccccc1`, in test [11], the AC50 is 28 µM (active).
